This is an account of results in patent US20260034094A1, “COMPOSITIONS AND METHODS FOR INDUCING FERROPTOSIS” (Kojin Therapeutics, Inc., priority 2022, published 2026).

One assay deals with human recombinant GCL (Homo sapiens (Human), UniProt P48506). The experiment in a line: GCL enzyme profiling assay (ADP-Glo luminescence). The class given is biochemical. The note with it: human recombinant GCL, ADP-Glo; read-out: GCL IC50. Put shortly: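 IC50 fitted by four-parameter logistic to luminescent ADP formation (ADP-Glo). Reaction at room temperature in HEPES pH 7.5 with 30 mM MgCl2, 0.2% F-127, 1% DMSO; 5 nM GCL and 0.6 mM ATP preincubated 1 h before adding 1 mM glutamate plus 1.2 mM α-aminobutyrate for 2 h.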
human recombinant GCL, sequence (P48506 whole entry): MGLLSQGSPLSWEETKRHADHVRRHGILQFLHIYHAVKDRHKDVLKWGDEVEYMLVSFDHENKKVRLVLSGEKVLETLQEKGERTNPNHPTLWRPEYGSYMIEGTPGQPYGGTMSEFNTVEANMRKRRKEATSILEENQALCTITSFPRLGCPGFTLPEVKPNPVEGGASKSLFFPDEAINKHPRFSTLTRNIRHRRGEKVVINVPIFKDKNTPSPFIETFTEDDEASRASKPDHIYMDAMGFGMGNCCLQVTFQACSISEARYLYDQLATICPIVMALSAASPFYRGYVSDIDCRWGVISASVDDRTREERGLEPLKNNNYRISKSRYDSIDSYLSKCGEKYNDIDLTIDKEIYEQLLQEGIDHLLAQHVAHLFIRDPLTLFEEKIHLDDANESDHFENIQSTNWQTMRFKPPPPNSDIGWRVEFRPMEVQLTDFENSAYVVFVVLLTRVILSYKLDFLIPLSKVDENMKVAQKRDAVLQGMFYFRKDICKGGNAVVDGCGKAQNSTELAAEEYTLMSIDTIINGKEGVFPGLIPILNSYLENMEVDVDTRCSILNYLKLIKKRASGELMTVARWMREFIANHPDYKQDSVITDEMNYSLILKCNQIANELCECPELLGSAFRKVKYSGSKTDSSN
(ADP-Glo first removes unused ATP, then detects ADP through luciferase.)

For another assay, the system named is RKN cells. The experiment in a line: RKN cell profiling assay (cell viability, CellTiter-Glo). The format is cell-based. The note with it: cell viability, read-out: Cell Killing EC50. The method in brief: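 Viability read by CellTiter-Glo luminescence after 96 h compound exposure (0.5% DMSO final) of cells plated at 1,000/well in 10% FBS F-12 and allowed 24 h attachment. Four-parameter fits gave EC50; rescue arms used ferrostatin-1, 1.5 μM, present from seeding.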
Background: Cellular ATP, detected with luciferase, serves as a proxy for viable cell number.

The term IC50 denotes the concentration needed to halve the response being measured. For orientation: EC50 means the concentration needed to bring the measured effect to its halfway point.

Where only a bound is given, the exact number is not on record here.

Take `CS(=O)(=O)c1ccc(-c2ccc(C(O)(CCS(=N)(=O)CC[C@H](N)C(=O)O)C(F)(F)F)cc2)c(Cl)c1` (stereo partly shown) [Compound 442]: on human recombinant GCL, the IC50 was not above 20 µM. In addition, the concentration for a half-maximal effect (EC50) in the assay with RKN cells is not below 1000 µM.
For `N=S(=O)(CC[C@H](N)C(=O)O)CCC(O)(c1ccc(-c2cccc3ccccc23)cc1)C(F)(F)F` (stereo partly shown) [Compound 444], the IC50 on human recombinant GCL was not above 20 µM. In addition, the EC50 in the assay on RKN cells is less than 1000 µM.
Taken in the same sequence, the figures for `CC(C)(C)c1nnc(-c2ccc(C(O)(CCS(=N)(=O)CC[C@H](N)C(=O)O)C(F)(F)F)cc2)o1` (stereo partly shown) [Compound 445] were 20 to 2000 µM and not below 1000 µM.
As for `N=S(=O)(CC[C@H](N)C(=O)O)CCC(O)(c1ccc(NC(=O)c2ccsc2)cc1)C(F)(F)F` (stereo partly shown) [Compound 446], the half-inhibitory concentration (IC50) on human recombinant GCL was not above 20 µM. Also, the EC50 with RKN cells is less than 1000 µM.
With `Cc1cc(-c2ccc(C(O)(CCS(=N)(=O)CC[C@H](N)C(=O)O)C(F)(F)F)cc2)c(C)o1` (stereo partly shown) [Compound 447], the IC50 at human recombinant GCL is not above 20 µM. Besides, the EC50 in the assay on RKN cells was not below 1000 µM.
As for `Cc1noc(C)c1-c1ccc(C(O)(CCS(=N)(=O)CC[C@H](N)C(=O)O)C(F)(F)F)cc1` (stereo partly shown) [Compound 448], at human recombinant GCL, the IC50 was not above 20 µM. Further, the EC50 with RKN cells was not below 1000 µM.
On to `N=S(=O)(CC[C@H](N)C(=O)O)CCC(O)(c1ccc(-c2ccc(Cl)cc2Cl)cc1OC(F)(F)F)C(F)(F)F` (stereo partly shown) [Compound 449], for which the IC50 on human recombinant GCL was not above 20 µM. Further, the half-maximal effective concentration (EC50) with RKN cells was not below 1000 µM.
Regarding `N=S(=O)(CC[C@H](N)C(=O)O)CCC(O)(c1ccc(-c2ccc(Cl)cc2Cl)cc1F)C(F)(F)F` (stereo partly shown) [Compound 450], the IC50 at human recombinant GCL is not above 20 µM. For the same compound, the EC50 with RKN cells is less than 1000 µM.
For `CCOc1cccc(-c2ccc(C(O)(CCS(=N)(=O)CC[C@H](N)C(=O)O)C(F)(F)F)cc2)c1` (stereo partly shown) [Compound 451], the IC50 on human recombinant GCL is not above 20 µM. The EC50 with RKN cells was less than 1000 µM.
For the compound `Cc1ccc(-c2ccc(C(O)(CCS(=N)(=O)CC[C@H](N)C(=O)O)C(F)(F)F)cc2C#N)cc1` (stereo partly shown) [Compound 452], on human recombinant GCL, the IC50 was not above 20 µM. In addition, in the assay on RKN cells, the half-maximal effective concentration (EC50) was not below 1000 µM.
For `N=S(=O)(CC[C@H](N)C(=O)O)CCC(O)(c1ccc(-c2ccc(O)c(F)c2)cc1)C(F)(F)F` (stereo partly shown) [Compound 453], the 50% inhibitory concentration (IC50) on human recombinant GCL was not above 20 µM. Also, the EC50 in the assay on RKN cells was not below 1000 µM.
As to `N#Cc1cc(-c2ccc(C(O)(CCS(=N)(=O)CC[C@H](N)C(=O)O)C(F)(F)F)cc2)ccc1O` (stereo partly shown) [Compound 454], the IC50 at human recombinant GCL is not above 20 µM. Further, the concentration giving a half-maximal response (EC50) in the assay on RKN cells is not below 1000 µM.
Taken in the same sequence, the figures for `Cc1cc(C(O)(CCS(=N)(=O)CC[C@H](N)C(=O)O)C(F)(F)F)ccc1-c1ccc(O)c(F)c1` (stereo partly shown) [Compound 455] were not above 20 µM and not below 1000 µM.
With `CC(C)(C)c1cc(-c2ccc(C(O)(CCS(=N)(=O)CC[C@H](N)C(=O)O)C(F)(F)F)cc2)ccc1O` (stereo partly shown) [Compound 456], the IC50 on human recombinant GCL was not above 20 µM. For the same compound, the EC50 in the assay on RKN cells was not below 1000 µM.
For the compound `N=S(=O)(CC[C@H](N)C(=O)O)CCC(O)(c1ccc(Cc2ccc(Cl)cc2Cl)cc1)C(F)(F)F` (stereo partly shown) [Compound 457], the concentration for half-maximal inhibition (IC50) on human recombinant GCL was not above 20 µM. Also, in the assay with RKN cells, the EC50 was not below 1000 µM.
With `N=S(=O)(CC[C@H](N)C(=O)O)CCC(O)(c1ccc(-c2ccc(OC(F)(F)F)cc2O)cc1)C(F)(F)F` (stereo partly shown) [Compound 458], the IC50 on human recombinant GCL was not above 20 µM. In the assay with RKN cells, the EC50 was less than 1000 µM.
The like results for `N=S(=O)(CC[C@H](N)C(=O)O)CCC(O)(c1ccc(-c2ccccc2)cn1)C(F)(F)F` (stereo partly drawn) [Compound 459, (2S)-2-amino-4-(4,4,4-trifluoro-3-hydroxy-3-(5-phenylpyridin-2-yl)butylsulfonimidoyl)butanoic acid] were, in that order, not above 20 µM and less than 1000 µM.
`N[C@@H](CCS(=O)(=O)CCC(O)(c1ccc(-c2ccc(Cl)cc2Cl)cn1)C(F)(F)F)C(=O)O` (stereo partly drawn) [Compound 460, (2S)-2-amino-4-[3-[5-(2,4-dichlorophenyl)-2-pyridyl]-4,4,4-trifluoro-3-hydroxy-butyl]sulfonyl-butanoic acid]: at human recombinant GCL, the IC50 is not above 20 µM. The concentration for a half-maximal effect (EC50) in the assay with RKN cells is less than 1000 µM.
For `N=S(=O)(CC[C@H](N)C(=O)O)CCC(O)(c1ccc(C2CCCC2)cn1)C(F)(F)F` (stereo partly drawn) [Compound 461, (2S)-2-amino-4-(3-(5-cyclopentylpyridin-2-yl)-4,4,4-trifluoro-3-hydroxybutylsulfonimidoyl)butanoic acid], the concentration for half-maximal inhibition (IC50) on human recombinant GCL was not above 20 µM. The EC50 in the assay with RKN cells is less than 1000 µM.
For `N=S(=O)(CC[C@H](N)C(=O)O)CCC(O)(c1ccc(-c2ccc(Cl)cc2Cl)cn1)C(F)(F)F` (stereo partly shown) [Compound 463], on human recombinant GCL, the IC50 is not above 20 µM. The EC50 with RKN cells is less than 1000 µM.
Turning to `N[C@@H](CCSCCC(O)(c1ncc(-c2ccc(Cl)cc2Cl)cn1)C(F)(F)F)C(=O)O` (stereo partly shown) [Compound 469], the IC50 on human recombinant GCL lay within 20 to 2000 µM. Further, in the assay on RKN cells, the concentration giving a half-maximal response (EC50) is not below 1000 µM.
Take `Cc1cc(F)ccc1-c1cnc(C(O)(CCS(=N)(=O)CC[C@H](N)C(=O)O)C(F)(F)F)nc1` (stereo partly shown) [Compound 473]: the half-maximal inhibitory concentration (IC50) at human recombinant GCL was in the range of 20 to 2000 µM. The 50% effective concentration (EC50) in the assay on RKN cells is less than 1000 µM.
The like results for `N=S(=O)(CC[C@H](N)C(=O)O)CCC(O)(c1ccc(C2CC2)cn1)C(F)(F)F` (stereo partly shown) [Compound 475] were, in that order, 20 to 2000 µM and not below 1000 µM.
`N=S(=O)(CC[C@H](N)C(=O)O)CCC(O)(c1ccc(-c2ccc(F)cc2F)cn1)C(F)(F)F` (stereo partly shown) [Compound 477]: the IC50 on human recombinant GCL is not above 20 µM. The concentration for a half-maximal effect (EC50) in the assay on RKN cells was less than 1000 µM.
For `Cc1cc(Cl)ccc1-c1ccc(C(O)(CCS(=N)(=O)CC[C@H](N)C(=O)O)C(F)(F)F)nc1` (stereo partly shown) [Compound 478], the IC50 on human recombinant GCL was not above 20 µM. In the assay on RKN cells, the EC50 is less than 1000 µM.
The like results for `Cc1cc(F)ccc1-c1ccc(C(O)(CCS(=N)(=O)CC[C@H](N)C(=O)O)C(F)(F)F)nc1` (stereo partly shown) [Compound 479] were, in that order, not above 20 µM and less than 1000 µM.
Turning to `N=S(=O)(CC[C@H](N)C(=O)O)CCC(O)(c1ccc(-c2cnco2)cn1)C(F)(F)F` (stereo partly shown) [Compound 480], on human recombinant GCL, the IC50 was in the range of 20 to 2000 µM. Also, the EC50 with RKN cells is not below 1000 µM.
Taken in the same sequence, the figures for `CCCCS(=N)(=O)CC[C@H](N)C(=O)OCC` (stereo partly shown) [Compound 482] were 20 to 2000 µM and not below 1000 µM.
As to `CCCCS(=N)(=O)CC[C@H](N)C(=O)OC(C)(C)C` (stereo partly shown) [Compound 483], the half-inhibitory concentration (IC50) on human recombinant GCL was in the range of 20 to 2000 µM. For the same compound, the EC50 in the assay on RKN cells is not below 1000 µM.
For the compound `CCC(C)(C)OC(=O)[C@@H](N)CCS(=N)(=O)CCCC(F)(F)F` (stereo partly shown) [Compound 484], the IC50 on human recombinant GCL fell in the range of 20 to 2000 µM. The EC50 with RKN cells was less than 1000 µM.
The like results for `CCCCOC(=O)[C@@H](N)CCS(=N)(=O)CCC(O)(c1ccc(-c2ccc(Cl)cc2Cl)cc1)C(F)(F)F` (stereo partly shown) [Compound 485] were, in that order, 20 to 2000 µM and less than 1000 µM.
In the case of `CCOC(=O)[C@@H](N)CC[S@@](=N)(=O)CC[C@@H](O)C(F)(F)F` [Compound 486, ethyl (S)-2-amino-4-((R,3R)-4,4,4-trifluoro-3-hydroxybutylsulfonimidoyl)butanoate], on human recombinant GCL, the IC50 is 20 to 2000 µM. Further, the EC50 in the assay with RKN cells is less than 1000 µM.
`CCOC(=O)[C@@H](N)CC[S@@](=N)(=O)CC[C@@](C)(O)C(F)(F)F` [Compound 487, ethyl (S)-2-amino-4-((R,3R)-4,4,4-trifluoro-3-hydroxy-3-methylbutylsulfonimidoyl)butanoate]: the half-inhibitory concentration (IC50) on human recombinant GCL fell in the range of 20 to 2000 µM. In addition, the EC50 with RKN cells is less than 1000 µM.
Taken in the same sequence, the figures for `CCOC(=O)[C@@H](N)CC[S@@](=N)(=O)CC[C@](O)(c1ccccc1)C(F)(F)F` [Compound 488, ethyl (S)-2-amino-4-((R,3S)-4,4,4-trifluoro-3-hydroxy-3-phenylbutylsulfonimidoyl)butanoate] were 20 to 2000 µM and less than 1000 µM.
Turning to `CC(C)(C)OC(=O)[C@@H](N)CC[S@@](=N)(=O)CC[C@H](O)C(F)(F)F` [Compound 489, tert-butyl (S)-2-amino-4-((R,3S)-4,4,4-trifluoro-3-hydroxybutylsulfonimidoyl)butanoate], the IC50 at human recombinant GCL is more than 2000 µM. The EC50 in the assay with RKN cells was not below 1000 µM.
Taken in the same sequence, the figures for `CC(C)(C)OC(=O)[C@@H](N)CC[S@](=N)(=O)CC[C@H](O)C(F)(F)F` [Compound 490] were more than 2000 µM and not below 1000 µM.
With `CC(C)(C)OC(=O)[C@@H](N)CC[S@@](=N)(=O)CC[C@@H](O)C(F)(F)F` [Compound 491, tert-butyl (S)-2-amino-4-((R,3R)-4,4,4-trifluoro-3-hydroxybutylsulfonimidoyl)butanoate], at human recombinant GCL, the 50% inhibitory concentration (IC50) was 20 to 2000 µM. Also, the EC50 in the assay on RKN cells was less than 1000 µM.
Turning to `CC(C)(C)OC(=O)[C@@H](N)CC[S@](=N)(=O)CC[C@@H](O)C(F)(F)F` [Compound 492], on human recombinant GCL, the IC50 is more than 2000 µM. Moreover, the EC50 in the assay with RKN cells was not below 1000 µM.
In the case of `N=S(=O)(CC[C@H](N)C(=O)O)CCC(O)(CC(F)(F)F)c1ccc(-c2ccc(Cl)cc2Cl)cc1` (stereo partly drawn) [Compound 494, (2S)-2-amino-4-(3-(2′, 4′-dichloro-[1, 1′-biphenyl]-4-yl)-5,5,5-trifluoro-3-hydroxypentylsulfonimidoyl) butanoic acid], the concentration for half-maximal inhibition (IC50) on human recombinant GCL was not above 20 µM. The EC50 in the assay with RKN cells is not below 1000 µM.
Regarding `N=S(=O)(C/C=C(\CC(F)(F)F)c1ccc(-c2ccc(Cl)cc2Cl)cc1)CC[C@H](N)C(=O)O` (stereo partly drawn) [Compound 495, (2S)-2-amino-4-((E)-3-(2′, 4′-dichloro-[1, 1′-biphenyl]-4-yl)-5,5,5-trifluoropent-2-en-1-ylsulfonimidoyl) butanoic acid], at human recombinant GCL, the half-maximal inhibitory concentration (IC50) was in the range of 20 to 2000 µM. In the assay on RKN cells, the concentration for a half-maximal effect (EC50) is not below 1000 µM.
Turning to `N[C@H]1CC[S@@](=O)(CC[C@H](O)C(F)(F)F)=NC1=O` [Compound 496, (1R,4S)-4-amino-1-((S)-4,4,4-trifluoro-3-hydroxybutyl)-5,6-dihydro-116,2-thiazin-3 (4H)-one 1-oxide], the 50% inhibitory concentration (IC50) on human recombinant GCL fell in the range of 20 to 2000 µM. In the assay on RKN cells, the half-maximal effective concentration (EC50) is less than 1000 µM.
